Results from US8389523B2, “Substituted quinoxaline and an agrochemical composition thereof” (Kumiai Chemical Industry Co., Ltd., priority 2007, dated 2013).

What was measured:
Format in all cases: in vivo
Parameters in all cases: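 grade 0 to 5 of growth suppression where 5 is 90% or more and 0 below 10%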
Amaranthus viridis L. [1] = experiment: Herbicidal effects in upland field soil treatment (Test Example 2); details: 1000 g active ingredient per hectare, 21st day after treatment, criteria of Table 138
Method in brief: (§1)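 Pre-emergence test: seeds sown in upland soil, then soil surface sprayed with diluted wettable powder at 1000 g active ingredient per hectare (1000 liters per hectare). Greenhouse growth; herbicidal effect scored on day 21 against set criteria.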

[2] = test system: Abutilon theophrasti medicus; experiment: as above; details: 1000 g active ingredient per hectare, 21st day after treatment, criteria of Table 138
Method in brief: as §1

[3] = test system: Scirpus juncoides Roxb. var. ohwianus. T. Koyama; experiment: Herbicidal effects in paddy field soil treatment (Test Example 1); details: paddy field soil treatment; 1000 g of the active ingredient per hectare; wettable powder added dropwise on water surface; 21st day after treatment
Method in brief: (§2)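 Seeds sown in puddled paddy soil, waterlogged to 3 cm depth; next day a diluted wettable powder applied dropwise to the water surface at 1000 g active ingredient per hectare. Herbicidal effect scored 21 days after treatment in a greenhouse.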

[4] = test system: Echinochloa oryzicola Vasing; experiment: as above; details: paddy field soil treatment; 1000 g of the active ingredient per hectare; wettable powder added dropwise on water surface; 21st day after treatment
Method in brief: as §2

[5] = test system: Monochoria vaginalis (Burm. f.) Presl var. plantaginea (Roxb.) Solms-Laub.; experiment: as above; details: paddy field soil treatment; 1000 g of the active ingredient per hectare; wettable powder added dropwise on water surface; 21st day after treatment
Method in brief: as §2

Amaranthus viridis L. [6] = experiment: Herbicidal effects in upland field foliar treatment (Test Example 3); details: criteria of Table 138; for herbicidal effects on Amaranthus viridis L.: 1000 g of the active ingredient per hectare, 14th day after the treatment, wettable powder; for herbicidal effect (index) on Amaranthus viridis L.: 1000 g active ingredient per hectare, 14th day after treatment
Method in brief: (§3)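 Plants grown two weeks from seed in upland soil in a greenhouse, then sprayed overall with water-diluted wettable powder at 1000 L/ha delivering 1000 g active ingredient/ha. Herbicidal effect scored by rating criteria 14 days after treatment.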

[7] = test system: Abutilon theophrasti medicus; experiment: as above; details: criteria of Table 138; for herbicidal effects on Abutilon theophrasti medicus: 1000 g of the active ingredient per hectare, 14th day after the treatment, wettable powder; for herbicidal effect (index) on Abutilon theophrasti medicus: 1000 g active ingredient per hectare, 14th day after treatment
Method in brief: as §3

[8] = test system: Echinochloa crus-galli (L.) P. Beauv. var. crus-galli; experiment: as above; details: criteria of Table 138; for herbicidal effects on Echinochloa crus-galli (L.) P. Beauv. var. crus-galli: 1000 g of the active ingredient per hectare, 14th day after the treatment, wettable powder; for herbicidal effect (index) on Echinochloa crus-galli (L.) P. Beauv. var. crus-galli: 1000 g active ingredient per hectare, 14th day after treatment
Method in brief: as §3

| Compound | herbicidal effect (index) on Amaranthus viridis L. (Amaranthus viridis L. [1]) | herbicidal effect (index) on Abutilon theophrasti medicus [2] | Herbicidal effects index, Scirpus juncoides Roxb. var. ohwianus. T. Koyama [3] | Herbicidal effects index, Echinochloa oryzicola Vasing [4] | Herbicidal effects index, Monochoria vaginalis (Burm. f.) Presl var. plantaginea (Roxb.) Solms-Laub. [5] | herbicidal effects on Amaranthus viridis L. (Amaranthus viridis L. [6]) | herbicidal effects on Abutilon theophrasti medicus [7] | herbicidal effects on Echinochloa crus-galli (L.) P. Beauv. var. crus-galli [8] | herbicidal effect (index) on Amaranthus viridis L. (Amaranthus viridis L. [6]) | herbicidal effect (index) on Abutilon theophrasti medicus [7] | herbicidal effect (index) on Echinochloa crus-galli (L.) P. Beauv. var. crus-galli [8] |
| --- | --- | --- | --- | --- | --- | --- | --- | --- | --- | --- | --- |
| Cc1ccc(-n2c(=O)c(C(=O)C3=C(O)CCCC3=O)nc3ccccc32)c(Cl)c1 [II-215] | 5 | 5 | 5 | 5 | 5 | 5 | 5 | 5 | – | – | – |
| O=C1CCCC(O)=C1C(=O)c1nc2ccccc2n(-c2cccnc2)c1=O [I-185] | 5 | 5 | 5 | 5 | 5 | – | – | – | 5 | 5 | 5 |
| COc1cc(OC)cc(-n2c(=O)c(C(=O)C3=C(O)CCCC3=O)nc3ccccc32)c1 [II-173] | 5 | 4 | 5 | 5 | 5 | 5 | 5 | 4 | – | – | – |
| O=C1CCCC(O)=C1C(=O)c1nc2cccnc2n(CCF)c1=O [III-45] | 5 | 4 | 5 | 4 | 5 | 5 | 5 | 5 | – | – | – |
| O=C1CCCC(O)=C1C(=O)c1nc2ccccc2n(-c2cccc3c2OCCO3)c1=O [II-226] | 5 | 5 | 5 | 5 | 5 | 5 | 5 | 5 | – | – | – |
| O=C1CCCC(O)=C1C(=O)c1nc2cccnc2n(-c2cccc(F)c2)c1=O [IV-7] | 5 | 5 | 5 | 5 | 5 | 5 | 5 | 5 | – | – | – |
| COc1ccccc1-n1c(=O)c(C(=O)C2=C(O)CCCC2=O)nc2ccccc21 [II-52] | 5 | 5 | 5 | 5 | 5 | 5 | 5 | 5 | – | – | – |
| CCCn1c(=O)c(C(=O)C2=C(O)CCCC2=O)nc2cccnc21 [III-12] | 5 | 4 | 5 | 5 | 5 | 5 | 5 | 4 | – | – | – |
| O=C1CCCC(O)=C1C(=O)c1nc2cccnc2n(-c2ccccc2Cl)c1=O [IV-9] | 5 | 5 | 5 | 5 | 5 | 5 | 5 | 5 | – | – | – |
| COc1ccc(-n2c(=O)c(C(=O)C3=C(O)CCCC3=O)nc3ccc(F)cc32)cc1 [II-188] | 5 | 5 | 5 | 5 | 5 | 5 | 5 | 4 | – | – | – |
| O=C1CCCC(O)=C1C(=O)c1nc2ccccc2n(-c2ccc(F)cc2)c1=O [II-8] | 5 | 5 | 5 | 5 | 5 | – | – | – | 5 | 5 | 5 |
| COc1ccc(-n2c(=O)c(C(=O)C3=C(O)CCCC3=O)nc3ccccc32)cn1 [I-189] | 5 | 5 | 5 | 5 | 5 | – | – | – | 5 | 5 | 4 |
| O=C1CCCC(O)=C1C(=O)c1nc2ccccc2n(-c2cccc(OC(F)(F)F)c2)c1=O [II-101] | 5 | 5 | 5 | 5 | 5 | 5 | 5 | 5 | – | – | – |
| COCc1ccc(-n2c(=O)c(C(=O)C3=C(O)CCCC3=O)nc3ccccc32)cc1 [II-149] | 5 | 4 | 5 | 5 | 5 | 5 | 5 | 5 | – | – | – |
| CCOc1cccc(-n2c(=O)c(C(=O)C3=C(O)CCCC3=O)nc3ccccc32)c1 [II-68] | 5 | 5 | 5 | 5 | 5 | 5 | 5 | 5 | – | – | – |
| CC(CCn1c(=O)c(C(=O)C2=C(O)CCCC2=O)nc2cccnc21)=C(F)F [III-232] | 5 | 5 | 5 | 5 | 5 | 5 | 5 | 5 | – | – | – |
| CC(C)n1c(=O)c(C(=O)C2=C(O)CCCC2=O)nc2ccccc21 [Compound I-13] | 5 | 5 | 5 | 5 | 5 | – | – | – | 5 | 5 | 5 |
| O=C1CCCC(O)=C1C(=O)c1nc2cccnc2n(-c2ccc(C3CC3)cc2)c1=O [IV-33] | 5 | 5 | 5 | 5 | 5 | 5 | 5 | 5 | – | – | – |
